The values below come from patent publication US20240060146A1, “CHEMICAL SUBSTANCE EVALUATION SYSTEM USING MULTICOLOR LIGHT-EMITTING CELLS” (TOHOKU UNIVERSITY, priority 2020, published 2024).

What all share (type): cell-based
In series [1] the test system is 2H4 cells. The experiment in a line: Evaluation of combination of IL-2 Luc LTT and IL-2 Luc assay. Further details: key: Positive (Pos): If the result is either LCT in the IL-2 Luc LTT or S in the IL-2 Luc assay, or both, the chemical substance is determined to be an immunosuppressive substance.; Negative (Neg): In the case other than the above, the chemical substance is determined to be a non-immunosuppressive substance. To be noted: LCT in IL-2 Luc LTT or S in IL-2 Luc assay = Pos. On the procedure: Positive (Pos): If the result is either LCT in the IL-2 Luc LTT or S in the IL-2 Luc assay, or both, the chemical substance is determined to be an immunosuppressive substance. Negative (Neg): In the case other than the above, the chemical substance is determined to be a non-immunosuppressive substance.

For series [2], the system named is 2H4 cells. The experiment in a line: IL-2 Luc LTT: evaluation of chemical substance in 2H4 cells. To be noted: for IL-2 Luc LTT: 1 h chemical, then 25 nM PMA and 1 μM ionomycin 24 h, class from Min % suppression (nIL2LA) and Min Inh-GAPLA. The method, then: (§1) 2H4 cells were established from Jurkat cells according to the method described in PTL 1. First, for the preparation of 2H4 cells, a plasmid having SLG introduced downstream of the IL-2 promoter, a plasmid having SLR introduced downstream of the G3PDH promoter, and a plasmid having SLO introduced downstream of the INF-γ promoter were prepared as internal standards. These plasmids contained a resistance gene for hygromycin B, puromycin, and neomycin downstream of SLG, SLR, and SLO, respectively. The conditions for drug selection after transfection of the host Jurkat cells were as follows: in the primary selection, the cells were cultured for 1 week in the presence of a drug. In the secondary selection culture, the cells that survived in the primary selection culture were seeded in a 96-well plate at 1 cell/well or 200 cells/well, and cultured for 2 weeks under the same drug conditions. After the secondary selection culture, the cells were subjected to clone selection from the two points of signal intensity and signal induction by drug treatment. The G3PDH promoter SLR was first introduced to establish monochromatic stable cell line Jurkat: G3PDH-SLR #14D1 cells. These cells were used as the parent cell line to introduce the INF-γ promoter SLO, thereby establishing bichromatic stable cell line Jurkat: INFγ-SLO/G3PDH-SLR #2B12 cells. Subsequently, the obtained cells were used as a parent cell line to introduce the IL-2 promoter SLG, thereby establishing trichromatic stable cell line Jurkat IL-2-SLG/INFγ-SLO/G3PDH-SLR #2H4 cells.
The chemical substances listed in Table 1 were evaluated using 2H4 cells. 2H4 cells were seeded in a 96-well plate at 1×10^4/well and treated with each chemical substance for 1 hour, followed by incubating the cells with 25 nM PMA and 1 μM ionomycin for 24 hours. After 24 hours from the treatment with PMA and ionomycin, Tripluck Assay Reagent (manufactured by Toyobo Co., Ltd.) was added, and the amount of luminescence was measured with a Phelios microplate luminometer (manufactured by Atto Corporation). For control, 2H4 cells untreated with a chemical substance were also examined in the same manner. The amount of luminescence of SLG luciferase activity (IL2LA), SLR luciferase activity (GAPLA), and SLO luciferase activity (IFNLA) was measured, and IL-2LA and IFNLA were each normalized by GAPLA and determined to be nIL2LA and nIFNLA, respectively. Thereafter, for the concentration of each chemical substance, “% suppression” and “Inh-GAPLA” were determined according to the following formulas (1) and (2), and the chemical substances were evaluated by using their minimum value (Min % suppression, Min Inh-GAPLA).
In the evaluation, for control, PMA/ionomycin-treated 2H4 cells and PMA/ionomycin-untreated 2H4 cells were also measured for nIL2LA.
(§2) % suppression={(nIL2LA in 2H4 cells untreated with a chemical substance)−(nIL2LA in 2H4 cells treated with a chemical substance)}×100/(nIL2LA in 2H4 cells untreated with a chemical substance) ---(1) Inh-GAPLA=(GAPLA in 2H4 cells treated with a chemical substance)/(GAPLA in 2H4 cells untreated with a chemical substance) ---(2)

Series [3] has as its system 2H4 cells. The experiment in a line: IL-2 Luc assay: evaluation of chemical substance in 2H4 cells. To be noted: 1 h chemical, then PMA/ionomycin, luminescence after six hours, class from Min % suppression of nIL2LA. The method, then:
as §1, §2
The chemical substances listed in Table 1 were evaluated using 2H4 cells. 2H4 cells were seeded in a 96-well plate at 2×10^5 cells/50 μl/well and treated with each chemical substance for 1 hour, followed by incubating the cells with 25 nM PMA and 1 µM ionomycin […]. After six hours from the treatment with PMA and ionomycin, Tripluc: Assay Reagent (manufactured by Toyobo Co., Ltd.) was added, and the amount of luminescence was measured with a Phelios microplate luminometer (manufactured by Atto Corporation). For control, 2H4 cells untreated with a chemical substance were also examined in the same manner. The amount of luminescence of SLG luciferase activity (IL2LA), SLR luciferase activity (GAPLA), and SLO luciferase activity (IFNLA) was measured, and IL-2LA and IFNLA were each normalized by GAPLA and determined to be nIL2LA and nIFNLA, respectively. Thereafter, for the concentration of each chemical substance, the value of suppression was calculated according to formula (1) above, and the chemical substances were evaluated by using their minimum value (Min suppression).

Turning to `Cc1ccc(=O)n(-c2ccccc2)c1` [Pirfenidone], the “Evaluation of Combination” value in series [1] is listed as “Pos”. Besides, the “IL-2 Luc LTT” value in series [2] was “I (−35<Min % suppression <35 and 0.7≤Min Inh-GAPLA: Inconclusive (denoted as “I”; possibly not measurable due to low water solubility))”. The “IL-2 Luc Assay” value in series [3] was “S (Min %; suppression ≥35: Suppression (denoted as “S”; determined to have immunosuppressive action))”.
Take `CC[C@H](C)C(=O)O[C@H]1C[C@H](O)C=C2C=C[C@H](C)[C@H](CC[C@@H](O)C[C@@H](O)CC(=O)O)[C@H]21` [Pravastatin]: the “Evaluation of Combination” value in series [1] is reported as “Neg”. In addition, in series [2], the “IL-2 Luc LTT” value is “I (−35<Min % suppression <35 and 0.7≤Min Inh-GAPLA: Inconclusive (denoted as “I”; possibly not measurable due to low water solubility))”. Further, the “IL-2 Luc Assay” value in series [3] is given as “N (−35<Min % suppression <35: No Effect (denoted as “N”; determined to not affect immunity))”.
Regarding `CO[C@H]1C[C@@H]2CC[C@@H](C)[C@@](O)(O2)C(=O)C(=O)N2CCCC[C@H]2C(=O)O[C@H]([C@H](C)C[C@@H]2CC[C@@H](O)[C@H](OC)C2)CC(=O)[C@H](C)/C=C(\C)[C@@H](O)[C@@H](OC)C(=O)[C@H](C)C[C@H](C)/C=C/C=C/C=C/1C` [Rapamycin (RPM), Rapamycin], the “Evaluation of Combination” value in series [1] was “Pos”. In addition, in series [2], the “determination in IL-2 Luc LTT (in words)” value is “inhibit cell growth and/or metabolic activity”; the “IL-2 Luc LTT” value was “LCT (Min % suppression ≤−35 and Min Inh-GAPLA <0.7: Leukocyte toxic (denoted as “LCT”; determined to have cell growth inhibition action and/or metabolic activity inhibition action))”. In addition, in series [3], the “IL-2 Luc Assay” value is “N (−35<Min % suppression <35: No Effect (denoted as “N”; determined to not affect immunity))”.
Take `Cc1cn([C@H]2C[C@H](N=[N+]=[N-])[C@@H](CO)O2)c(=O)[nH]c1=O` [Retrovir]: the “Evaluation of Combination” value in series [1] is on record as “Pos”. Moreover, in series [2], the “IL-2 Luc LTT” value was “NLCT”. In series [3], the “IL-2 Luc Assay” value is “A (Min suppression ≤−35: Augmentation (denoted as “A”; determined to have immunoaugmenting action))”.
The matching figures for `C=CC[C@@H]1/C=C(\C)C[C@H](C)C[C@H](OC)[C@H]2O[C@@](O)(C(=O)C(=O)N3CCCC[C@H]3C(=O)O[C@H](/C(C)=C/[C@@H]3CC[C@@H](O)[C@H](OC)C3)[C@H](C)[C@@H](O)CC1=O)[C@H](C)C[C@@H]2OC` [Tacrolimus (Tac), Tacrolimus]: “Pos”, “NLCT” and “S (Min %; suppression ≥35: Suppression (denoted as “S”; determined to have immunosuppressive action))”.
`COc1cc([C@@H]2c3cc4c(cc3[C@@H](O[C@@H]3O[C@@H]5CO[C@@H](c6cccs6)O[C@H]5[C@H](O)[C@H]3O)[C@H]3COC(=O)[C@H]23)OCO4)cc(OC)c1O` [Teniposide]: the “Evaluation of Combination” value in series [1] was “Pos”. The “IL-2 Luc LTT” value in series [2] is “LCT (Min % suppression ≤−35 and Min Inh-GAPLA <0.7: Leukocyte toxic (denoted as “LCT”; determined to have cell growth inhibition action and/or metabolic activity inhibition action))”. Moreover, the “IL-2 Luc Assay” value in series [3] is recorded as “N (−35<Min % suppression <35: No Effect (denoted as “N”; determined to not affect immunity))”.
Take `CN(C/C=C/C#CC(C)(C)C)Cc1cccc2ccccc12` [Terbinafine]: the “Evaluation of Combination” value in series [1] was “Pos”. In series [2], the “IL-2 Luc LTT” value is “NLCT”. Besides, the “IL-2 Luc Assay” value in series [3] is “N (−35<Min % suppression <35: No Effect (denoted as “N”; determined to not affect immunity))”.
Taken in the same sequence, the figures for `CC(=O)CC(c1ccccc1)c1c(O)c2ccccc2oc1=O` (stereo not shown) [Warfarin] were “Neg”, “NLCT” and “N (−35<Min % suppression <35: No Effect (denoted as “N”; determined to not affect immunity))”.
On to Bleomycin sulfate, for which the “Evaluation of Combination” value in series [1] is recorded as “Pos”. In series [2], the “IL-2 Luc LTT” value is “LCT (Min % suppression ≤−35 and Min Inh-GAPLA <0.7: Leukocyte toxic (denoted as “LCT”; determined to have cell growth inhibition action and/or metabolic activity inhibition action))”. Further, the “IL-2 Luc Assay” value in series [3] is listed as “N (−35<Min % suppression <35: No Effect (denoted as “N”; determined to not affect immunity))”.
